Data on three compounds can be found in article PMC8496750, “Identification of the organic anion transporting polypeptides responsible for the hepatic uptake of the major metabolite of epyrifenacil, S‐3100‐CA, in mice” (Pharmacology Research & Perspectives, 2021).

One data set addresses T1, mouse Oatp2b1 (Mus musculus, UniProt Q8BXB6).
T1 sequence (Q8BXB6 1-683): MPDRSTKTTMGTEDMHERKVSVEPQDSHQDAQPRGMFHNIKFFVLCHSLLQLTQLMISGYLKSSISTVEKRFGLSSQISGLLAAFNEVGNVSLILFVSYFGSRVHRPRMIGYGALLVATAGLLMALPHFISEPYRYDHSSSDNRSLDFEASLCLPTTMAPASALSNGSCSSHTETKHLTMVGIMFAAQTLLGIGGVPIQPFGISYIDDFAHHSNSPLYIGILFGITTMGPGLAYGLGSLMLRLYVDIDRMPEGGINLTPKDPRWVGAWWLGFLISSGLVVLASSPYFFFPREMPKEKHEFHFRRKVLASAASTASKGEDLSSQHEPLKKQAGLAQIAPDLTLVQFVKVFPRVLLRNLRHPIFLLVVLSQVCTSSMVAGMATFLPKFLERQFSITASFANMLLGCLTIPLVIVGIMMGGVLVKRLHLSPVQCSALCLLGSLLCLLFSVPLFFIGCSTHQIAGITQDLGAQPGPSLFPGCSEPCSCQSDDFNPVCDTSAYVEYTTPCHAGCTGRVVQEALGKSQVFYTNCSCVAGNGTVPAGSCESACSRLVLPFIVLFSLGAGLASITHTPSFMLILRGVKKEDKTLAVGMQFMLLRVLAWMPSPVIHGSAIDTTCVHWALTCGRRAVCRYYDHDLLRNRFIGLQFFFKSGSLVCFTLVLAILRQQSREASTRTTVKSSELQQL
Nature of the data set: Uptake assay for radiolabeled substrates, mouse Oatp2b1 expressing 293FT cells. The settings on record: 10‐min incubation. The method, then: (§1) 293FT cells were purchased from Thermo Fisher Scientific, Inc.. The cells were grown in Dulbecco's modified Eagle medium (supplemented with 4.5 g/L glucose and 2 mM L‐glutamine) at 37°C, 5% CO2, and 95% humidity. The cells were passaged 3 times per week by harvesting cells using trypsin and plating at a density of 1.0 × 10^4 cells/cm^2 in a 10 cm cell culture plate for maintenance culture. The 293FT cells were detached using trypsin and re‐seeded at a density of 2.5 × 10^4 cells/cm^2 in BioCoat™ Collagen I 6‐well plates (Corning Inc.) for transfection and then treated with 1.2 μg of plasmid vector and 3.2 μl of Lipofectamine™ 2000 Transfection Reagent (Thermo Fisher Scientific, Inc.) according to the manufacturer's instructions. After a 3‐h treatment, the transfection medium was replaced with a fresh cell culture medium and incubated at 37°C with 95% humidity and 5% CO2 until ready for the assay.
(§2) Transport experiments were conducted approximately 24 h post‐transfection. The experiments were initiated by aspirating culture medium and addition of pre‐warmed radiolabeled substrate solution (final 1.0% of acetonitrile or 0.9% of ethanol in phosphate‐buffered saline (PBS[−])) to each well. After a 10‐min incubation, cells were washed twice with 1 ml of ice‐cold PBS(−) and lysed with 700 μl of 1.0 M NaOH for 3 h or more at room temperature. The lysate was transferred to a 1.5‐ml tube, and neutralized with 350 μl of 2.0 M HCl and 350 μl of 2.0% sodium dodecyl sulfate (SDS) solution. From the lysate, 1.0 ml was transferred to a vial containing 10 ml of Emulsifier Scintillator Plus to measure the radioactivity in the LSC. The protein concentration of the cell lysate was also measured using a Pierce™ BCA Protein Assay Kit (Thermo Fisher Scientific, Inc.), which was used to normalize, according to the cell number, the radioactivity in the cell lysate extract. The protein assay was performed in duplicate. Each sample type was assayed in triplicate wells, and each run was performed twice. When the difference in mean uptake between OATP expressing cells and mock cells was more than 2 times, the OATP was judged to be involved in transportation of the substrate. […] Each sample type was assayed in triplicate wells.

The next data set addresses T2, human OATP1B3 (Homo sapiens, UniProt Q9NPD5).
T2 construct: expressed in transfected cells; host or cells: 293FT cells
T2 sequence (Q9NPD5 1-702): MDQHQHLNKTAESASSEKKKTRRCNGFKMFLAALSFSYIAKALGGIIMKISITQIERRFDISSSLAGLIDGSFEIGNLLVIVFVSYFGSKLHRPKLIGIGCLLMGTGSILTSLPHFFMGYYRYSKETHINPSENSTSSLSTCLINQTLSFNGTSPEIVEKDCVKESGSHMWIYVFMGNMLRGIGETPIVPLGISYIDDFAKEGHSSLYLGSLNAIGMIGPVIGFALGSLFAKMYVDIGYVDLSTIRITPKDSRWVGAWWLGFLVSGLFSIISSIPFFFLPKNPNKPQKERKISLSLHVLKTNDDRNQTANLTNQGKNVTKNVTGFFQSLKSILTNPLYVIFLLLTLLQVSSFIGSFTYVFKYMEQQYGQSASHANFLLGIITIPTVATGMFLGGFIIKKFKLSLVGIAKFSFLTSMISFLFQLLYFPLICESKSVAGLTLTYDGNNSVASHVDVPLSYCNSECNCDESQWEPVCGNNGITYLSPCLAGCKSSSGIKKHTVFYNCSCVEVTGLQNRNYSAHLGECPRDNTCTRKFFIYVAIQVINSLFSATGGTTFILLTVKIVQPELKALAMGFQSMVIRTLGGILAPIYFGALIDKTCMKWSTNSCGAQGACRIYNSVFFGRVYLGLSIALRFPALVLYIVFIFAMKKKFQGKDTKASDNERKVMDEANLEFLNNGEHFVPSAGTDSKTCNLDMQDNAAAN
Kind of data set: Uptake assay for radiolabeled substrates, human OATP1B3 expressing 293FT cells. The data set is classed as in vitro ADME. As to conditions: 10‐min incubation. The method, then: as §1, §2

In the case of `C[C@]12CC[C@@H]3c4ccc(OS(=O)(=O)O)cc4CC[C@H]3[C@@H]1CCC2=O` [E3S, Estrone 3‐sulfate], the “Ratio of uptake amount relative to the uptake into mock cells” value at mouse Oatp2b1 (Run_1) turned out to be 2.9; on mouse Oatp2b1 (Run_2) it was 3.9; at human OATP1B3 (Run_1), 2.7; at human OATP1B3 (Run_2), 3.3.
The matching figures for `C[C@]12CC[C@@H]3c4ccc(O)cc4CC[C@H]3[C@@H]1CC[C@@H]2O[C@@H]1O[C@H](C(=O)O)[C@@H](O)[C@H](O)[C@H]1O` [E217βG, Estradiol 17β‐D‐glucuronide]: 4.1, 2.0, 19.3 and 12.9.
Taken in the same sequence, the figures for `Cn1c(C(F)(F)F)cc(=O)n(-c2cc(Oc3cccnc3OCC(=O)O)c(Cl)cc2F)c1=O` [S‐3100‐CA] were 2.4, 4.0, 3.1 and 5.1.
